In publication PMC11393731, “Sidechain structure–activity relationships of cyclobutane-based small molecule αvβ3 antagonists” (RSC Medicinal Chemistry, 2024):
“Also recorded” adds a separate entry of the source. Where two headings read alike, the source gives them in different places.

Columns and labels:
[1] = target: T1, αvβ3 (Homo sapiens, UniProt P05106+P06756); experiment: αvβ3-mediated SK-Mel-2 melanoma cell adhesion to fibronectin; format: cell-based; details: for inhibition at 5 µM: read-out: Adhesion % inhibition @5 μM
T1 construct: αvβ3-expressing U87-MG glioblastoma and SK-Mel-2 melanoma cells; host or cells: SK-Mel-2 human melanoma cells
Description: (§1) Cancer cell lines were obtained from ATCC (SK-Mel-2) or ECACC (U87-MG) and cultured in RPMI-1640 culture medium containing 10% foetal bovine serum (FBS), sodium pyruvate (1 mM) and L-glutamine (2 mM). All are human in origin. The αvβ3 adhesion assay was performed as previously described.[22,43]

[2] = test system: U87-MG glioblastoma cells; experiment: U87-MG 3-D spheroid invasion assay; format: cell-based; details: Homo sapiens, U-87 MG, mean ± SD
Description: Selected compounds were further investigated for effects on αvβ3-mediated cell invasion to model a key step in tumour progression and metastasis. U87-MG glioblastoma cells; a well-known αvβ3-expressing cell line model,[35,36] were used in a 3-D spheroid invasion model.[37]
as §1
Spheroids were formed from U87-MG cells (1000 cells per 30 μl hanging drop) according to the method of Nowicki and then embedded in collagen as follows.[37] Collagen I (1400 μL of 3 mg mL^−1) was added to a 1 mL Eppendorf tube on ice, supplemented with 0.2 mL of complete RPMI, and adjusted to pH 7.4 with 1 N NaOH. The collagen mixture was pipetted into each chamber of an 8-chamber cover glass and incubated at 37 °C for 45 minutes. Spheroids from hanging drops were transferred to each chamber of the cover glass, the medium allowed to evaporate, and then a 200 μL layer of collagen gel matrix was added to each chamber and incubated at 37 °C for 45 minutes. 200 μL of RPMI containing test compounds was added to each chamber and incubated at 37 °C, 5% CO2 for 7 days. The spheroids were observed frequently using inverted light microscopy at 10× objective lens, and images were captured and analysed using ImageJ.

[3] = in vitro; format: cell-based; details: human
Description: (§2) Compounds were screened for non-specific cytotoxicity using the MTT assay before use in anti-αvβ3 functional assays. Unlike normal cells, cancer cell survival is often independent of αvβ3, and checking for cytotoxicity ensures inhibition of adhesion and invasion are truly from αvβ3 inhibition rather than cell death. […] In general, aminopyridines 53 and 54 were more cytotoxic than most THN-containing mimetics.
as §1
(§3) Table S1 Cytotoxicity of compounds on the cell lines used in the functional assays (measured by MTT assay). Cells (2000 cells/well for Sk-Mel-2; 1000 cells/well for U87MG) were incubated for 96 hours at 37 °C in a total volume of 200 µL/well (180 μL medium + 20 μL test compound solution). After 96 hours, the medium was replaced by fresh medium containing 0.5 mg/ml (end conc.) MTT per well, incubated for 4 h then the plate processed and read as described in Sutherland et al. 1 […]
(§4) 1. M. Sutherland, A. Gordon, F. O. Al-Shammari, A. Throup, A. Cilia La Corte, H. Philippou, S. D.
(§5) Shnyder, L. H. Patterson and H. M. Sheldrake, Cancers, 2023, 15, 4023.
(§6) (also on this page, place not known: al.1 Supplementary Information (SI) for RSC Medicinal Chemistry. This journal is © The Royal Society of Chemistry 2024)
(§7) (1 picture or pasted object on this page, not shown here)

[4] = in vitro; format: cell-based; details: human; remark: listed apart in the source
Description: as §2, §1, §3, §4, §5, §6, §7

[5] = Metabolic stability in mouse liver homogenates; format: in vitro ADME; details: for half-life at 10 μM: liver homogenate (1:3), 37 °C, read-out: half-life of methyl ester cleavage to free acid
Description: The methyl esters in 1 and 54 were cleaved to the corresponding free acids with half-lives of 5.4 minutes and 3.6 minutes respectively (ESI ^†). This was expected as small esters are frequently used to mask carboxylic acids with rapid ester hydrolysis releasing the active carboxylic acid in biological systems.
Compound metabolism in liver (ex vivo) was studied using (1 : 3) tissue homogenates of mouse liver. Mouse livers, supplied by the Institute of Cancer Therapeutics (ICT), under Home Office license guidelines (see below) were homogenized in phosphate-buffered saline. Liver homogenates were spiked with compound of interest (10 μM final concentration) and incubated at 37 °C. Reaction aliquots were removed over a 120 minute period, proteins precipitated using acetonitrile (1 : 3), and compound and metabolites analyzed by liquid chromatography-mass spectrometry (LC–MS) at the appropriate SIR (single ion recording) channel.
Detection was performed on a Waters Alliance system using a photodiode array detector, and a Waters Micromass ZQ quadrupole electrospray mass spectrometer connected in series. Compound and metabolites were separated on a RPB reversed-phase high-performance liquid chromatography column (HiChrom) using a mobile phase of acetonitrile/water/0.1% formic acid, with a gradient from 20% to 70% acetonitrile over 30 minutes at 1.1 mL min^−1.
Any metabolic intermediates were detected as singularly charged ions and identified by mass spectrometry.

[6] = test system: C57BL/6 mice; experiment: In vivo dose tolerability in C57BL/6 mice; set-up: species or system mouse; details: intraperitoneal, 4 consecutive days, female C57BL/6 mice
Description: Given compound 54's effectiveness at functional inhibition of αvβ3, its rapid conversion to a stable carboxylic acid, and our preference for developing an aminopyridine-based RGD mimetic over a THN-based one, 54 was therefore selected for in vivo dose tolerability studies in an immunocompetent C57BL/6 mouse model (Fig. 2).
Compound 54 was administered intraperitoneally three dose levels, up to its maximum soluble dose of 300 mg kg^−1 per day, for 4 consecutive days to female C57BL/6 immunocompetent mice, and mice were observed daily, and bodyweight measured frequently. […] Mo = mouse; Cont = solvent control.
Female adult C57BL/6 mice were used (Envigo, Blackthorn, UK). Mice all came from the same delivery and were randomly assigned to cages. They were kept in cages housed in isolation cabinets in an air-conditioned room with regular alternating cycles of light and darkness. They received Teklad 2018 diet (Envigo, Blackthorn, UK) and water ad libitum.
For evaluation of the safety of compound 54in vivo, the compound was dissolved in 15% DMSO/arachis oil, and then administered intraperitoneally as a single dose on four consecutive days, with the first day designated day 0, with 2 mice being treated at each dose level. The control was solvent administered intraperitoneally on the same schedule. […] Mice were observed daily for signs of deleterious effects, and bodyweight measured frequently.

[7] = SK-MEL-2, read-out: Adhesion % inhibition @50 μM (initial trial experiment), initial trial experiment, not tested further at this concentration
[8] = SK-Mel-2 adhesion to fibronectin, mean ± SD
[9] = read-out: Adhesion % inhibition @50 μM, SK-Mel-2 adhesion to fibronectin, mean ± SD

T1 sequence (P06756 31-889 limits assumed): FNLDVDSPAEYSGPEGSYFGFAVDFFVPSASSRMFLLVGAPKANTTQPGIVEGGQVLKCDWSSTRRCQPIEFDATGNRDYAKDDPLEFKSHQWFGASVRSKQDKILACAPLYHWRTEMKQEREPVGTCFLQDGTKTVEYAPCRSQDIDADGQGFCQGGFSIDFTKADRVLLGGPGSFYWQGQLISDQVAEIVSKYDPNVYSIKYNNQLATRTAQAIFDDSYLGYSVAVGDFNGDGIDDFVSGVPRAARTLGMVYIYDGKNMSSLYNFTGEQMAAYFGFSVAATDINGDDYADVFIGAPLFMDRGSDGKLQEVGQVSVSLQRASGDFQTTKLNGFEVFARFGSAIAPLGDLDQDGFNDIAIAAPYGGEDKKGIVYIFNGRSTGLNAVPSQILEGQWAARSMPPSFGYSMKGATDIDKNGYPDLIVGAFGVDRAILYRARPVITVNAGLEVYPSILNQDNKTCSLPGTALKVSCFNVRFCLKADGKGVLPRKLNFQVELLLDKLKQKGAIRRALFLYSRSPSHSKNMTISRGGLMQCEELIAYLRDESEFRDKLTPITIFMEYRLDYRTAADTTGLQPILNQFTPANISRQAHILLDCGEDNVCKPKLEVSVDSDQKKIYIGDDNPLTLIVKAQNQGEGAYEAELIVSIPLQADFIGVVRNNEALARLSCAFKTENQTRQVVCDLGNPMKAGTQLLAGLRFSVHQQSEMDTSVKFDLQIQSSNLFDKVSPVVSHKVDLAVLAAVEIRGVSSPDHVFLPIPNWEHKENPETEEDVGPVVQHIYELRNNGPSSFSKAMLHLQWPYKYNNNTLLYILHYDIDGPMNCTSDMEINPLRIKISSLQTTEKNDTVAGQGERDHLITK
T1 sequence (P06756 891-1048 partner limits assumed): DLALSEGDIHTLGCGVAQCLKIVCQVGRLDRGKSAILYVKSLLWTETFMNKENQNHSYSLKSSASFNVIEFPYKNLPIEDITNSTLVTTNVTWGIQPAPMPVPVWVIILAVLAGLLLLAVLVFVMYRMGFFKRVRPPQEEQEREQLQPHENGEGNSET
T1 sequence (P05106 27-788): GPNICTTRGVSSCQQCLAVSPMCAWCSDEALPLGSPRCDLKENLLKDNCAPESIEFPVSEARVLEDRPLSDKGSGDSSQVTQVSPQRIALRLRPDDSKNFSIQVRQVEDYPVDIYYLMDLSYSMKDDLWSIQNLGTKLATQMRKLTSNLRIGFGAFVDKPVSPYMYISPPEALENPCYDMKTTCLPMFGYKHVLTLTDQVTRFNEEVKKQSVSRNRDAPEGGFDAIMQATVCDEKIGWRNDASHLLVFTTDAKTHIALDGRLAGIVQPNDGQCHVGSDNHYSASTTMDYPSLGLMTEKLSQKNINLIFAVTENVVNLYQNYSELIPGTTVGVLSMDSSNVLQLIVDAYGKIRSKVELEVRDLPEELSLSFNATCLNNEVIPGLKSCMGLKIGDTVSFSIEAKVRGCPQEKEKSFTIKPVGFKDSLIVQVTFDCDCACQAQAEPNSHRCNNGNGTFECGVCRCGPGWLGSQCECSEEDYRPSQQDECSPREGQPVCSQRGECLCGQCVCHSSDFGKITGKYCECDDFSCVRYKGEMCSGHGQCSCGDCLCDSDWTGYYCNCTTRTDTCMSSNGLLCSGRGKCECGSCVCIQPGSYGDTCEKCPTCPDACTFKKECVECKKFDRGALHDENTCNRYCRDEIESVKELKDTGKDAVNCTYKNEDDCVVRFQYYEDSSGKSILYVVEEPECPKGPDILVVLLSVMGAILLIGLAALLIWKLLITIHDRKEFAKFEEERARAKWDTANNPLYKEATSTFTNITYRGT

inhibition at 50 µM [1, 7] [%] | IC50 [1, 8] [µM] | inhibition at 5 µM [1, 8] [%] | IC50 at 96 h [3] [µM] | SMILES | inhibition at 10 µM [2] [%] | other results
> 75 | 29.4 ± 2.1 | 4 ± 9 |  | COC(=O)[C@H](CCNC(=O)[C@H]1C[C@@H](Cc2ccc3c(n2)NCCC3)C1)NS(=O)(=O)c1ccccc1 [Compound 21] | 49.5 ± 8.8 | 
 |  |  | > 50 | O=C(O)C[C@H](NS(=O)(=O)c1ccccc1)C(=O)N[C@H]1C[C@@H](CCc2ccc3cccnc3n2)C1 [Compound 38] |  | inhibition at 50 µM [1, 9]: 43 ± 31%
> 75 | 11.5 ± 5.3 | 43 ± 6 |  | COC(=O)[C@H](CCNC(=O)[C@H]1C[C@@H](CCc2ccc3cccnc3n2)C1)NS(=O)(=O)c1c(C)cc(C)cc1C [Compound 20] | 55.7 ± 1.2 | 
> 75 |  | 54 ± 15 | > 50 | COC(=O)[C@H](CCNC(=O)[C@H]1C[C@@H](CCc2ccc3cccnc3n2)C1)NS(=O)(=O)c1ccccc1 [Compound 19] |  | 
> 75 |  | 71 ± 16 | 35.2 ± 6.5 | CC(C)(C)OC(=O)C[C@H](NS(=O)(=O)c1ccccc1)C(=O)N[C@H]1C[C@@H](CCc2ccc3c(n2)NCCC3)C1 [Compound 39] |  | 
 |  |  |  | COC(=O)[C@H](CC(=O)N[C@H]1C[C@@H](CCc2ccc3cccnc3n2)C1)NS(=O)(=O)c1ccccc1 [Compound 28] | 28.5 ± 4.4 | inhibition at 50 µM [1, 9]: 42.4 ± 16.3%
 |  |  |  | CC(C)[C@@H]1NC(=O)[C@@H](Cc2ccccc2)NC(=O)[C@H](CC(=O)O)NC(=O)CNC(=O)[C@H](CCCN=C(N)N)NC1=O [cRGDfV, reference compound] |  | IC50 at 96 h [4]: 69.2 ± 25.5 µM
 | 49.5 ± 29.8 | 13.8 ± 9.7 | > 100 | Cc1cc(C)c(S(=O)(=O)N[C@H]2CC(=O)N([C@H]3C[C@@H](CCc4ccc5cccnc5n4)C3)C2=O)c(C)c1 [Compound 31] |  | inhibition at 50 µM [1, 9]: 60.9 ± 23.8%
 | 0.34 ± 0.33 | 98.4 ± 1.9 |  | COC(=O)[C@H](CNC(=O)[C@H]1C[C@@H](CCc2ccc3c(n2)NCCC3)C1)NS(=O)(=O)c1c(C)cc(C)cc1C [Compound 1] | 60.2 ± 0.2 | half-life at 10 μM [5]: 5.4 min
 |  |  |  | CNc1cccc(CC[C@H]2C[C@@H](C(=O)NC[C@H](NS(=O)(=O)c3c(C)cc(C)cc3C)C(=O)O)C2)n1 [Compound 55] |  | stability of metabolite in liver ([5]; mouse liver homogenate): appears to be stable
> 75 |  | 57 ± 13 | > 50 | COC(=O)[C@H](CCNC(=O)[C@H]1C[C@@H](CCc2ccc3c(n2)NCCC3)C1)NS(=O)(=O)c1ccccc1 [Compound 23] |  | 
> 75 |  | 74 ± 10 |  | COC(=O)[C@H](CCNC(=O)[C@H]1C[C@@H](CCc2ccc3c(n2)NCCC3)C1)NS(=O)(=O)c1c(C)cc(C)cc1C [Compound 24] | 35 ± 9 | 
 | 1.8 ± 1 |  | 15.2 ± 5.5 | Cc1cc(C)c(S(=O)(=O)N[C@H]2CC(=O)N([C@H]3C[C@@H](CCc4ccc5c(n4)NCCC5)C3)C2=O)c(C)c1 [Compound 35] |  | inhibition at 0.5 µM ([1]; 0.5 μM, SK-Mel-2 adhesion to fibronectin): 45.6%
> 75 | 13.6 ± 8.3 | 50 ± 17 | > 50 | CC(C)(C)OC(=O)C[C@H](NS(=O)(=O)c1ccccc1)C(=O)N[C@H]1C[C@@H](CCc2ccc3cccnc3n2)C1 [Compound 37] |  | 
 |  |  |  | COC(=O)[C@H](CCNC(=O)[C@H]1C[C@@H](Cc2ccc3cccnc3n2)C1)NS(=O)(=O)c1c(C)cc(C)cc1C [Compound 18] | 17.4 ± 3.7 | IC50 at 96 h [4]: 59.2 ± 16.9 µM
 |  |  |  | COC(=O)[C@H](CCNC(=O)[C@H]1C[C@@H](Cc2ccc3cccnc3n2)C1)NS(=O)(=O)c1ccccc1 [Compound 17] | 23.3 ± 6.2 | inhibition at 50 µM [1, 9]: 13 ± 25%
 | 3.28 ± 0.01 | 60.2 ± 14.8 |  | O=C1C[C@H](NS(=O)(=O)c2ccccc2)C(=O)N1[C@H]1C[C@@H](CCc2ccc3c(n2)NCCC3)C1 [Compound 34] | 69.9 ± 1.8 | inhibition at 50 µM [1, 9]: 73.9 ± 24.6%
> 75 |  | 83 ± 19 | > 50 | COC(=O)[C@H](CCNC(=O)[C@H]1C[C@@H](Cc2ccc3c(n2)NCCC3)C1)NS(=O)(=O)c1c(C)cc(C)cc1C [Compound 22] | 22.9 ± 5.7 | IC50 at 96 h [4]: 46.4 ± 3.5 µM
 |  |  |  | COC(=O)[C@H](CC(=O)N[C@H]1C[C@@H](CCc2ccc3cccnc3n2)C1)NS(=O)(=O)c1c(C)cc(C)cc1C [Compound 29] | 70.4 ± 1.4 | inhibition at 50 µM [1, 9]: 56.6 ± 15.3%
 |  | 45.4 ± 13.7 |  | COC(=O)[C@H](CC(=O)N[C@H]1C[C@@H](CCc2ccc3c(n2)NCCC3)C1)NS(=O)(=O)c1ccccc1 [Compound 32] | 41.6 ± 4.7 | 
 |  | 39.9 ± 23.8 |  | O=C1C[C@H](NS(=O)(=O)c2ccccc2)C(=O)N1[C@H]1C[C@@H](CCc2ccc3cccnc3n2)C1 [Compound 30] | 22.6 ± 4 | 
 | 1.8 ± 0.4 | 85 ± 1.4 |  | CNc1cccc(CC[C@H]2C[C@@H](C(=O)NC[C@H](NS(=O)(=O)c3ccccc3)C(=O)OC)C2)n1 [Compound 53] | 62.9 ± 1.5 | 
> 75 |  | 67 ± 16 | > 50 | O=C(O)C[C@H](NS(=O)(=O)c1ccccc1)C(=O)N[C@H]1C[C@@H](CCc2ccc3c(n2)NCCC3)C1 [Compound 40] |  | 
 | 1.2 ± 0.9 | 89.5 ± 8.7 |  | COC(=O)[C@H](CC(=O)N[C@H]1C[C@@H](CCc2ccc3c(n2)NCCC3)C1)NS(=O)(=O)c1c(C)cc(C)cc1C [Compound 33] | 33.7 ± 7.4 | 

SMILES | inhibition at 50 µM [1, 7] [%] | IC50 [1, 8] [µM] | inhibition at 5 µM [1, 8] [%] | IC50 at 96 h [3] [µM] | inhibition at 10 µM [2] [%] | other results
CNc1cccc(CC[C@H]2C[C@@H](C(=O)NC[C@H](NS(=O)(=O)c3c(C)cc(C)cc3C)C(=O)OC)C2)n1 [Compound 54] |  | 0.6 ± 0.7 | 84.9 ± 11.2 |  | 48.6 ± 1 | half-life at 10 μM [5]: 3.6 min; toxicity / deleterious effects ([6]; three dose levels up to 300 mg kg^−1 per day): No deleterious effects were observed; also recorded: non-toxic; bodyweight ([6]; up to 300 mg kg^−1 per day): remained within normal levels
